Measured values: patent US12145947B2, “Pyrimidine based modulators and uses thereof” (Quanta Therapeutics, Inc., priority 2022, dated 2024)

Tests used:
KRAS G12D/RAF1 = molecular target: T1, KRAS G12D/RAF1 (Homo sapiens, UniProt P01116, G12D); experiment: Protein-protein interaction (PPI) HTRF assay KRAS G12D/RAF1; assay type: binding; details: Table 4
T1 construct: His6-MBP (N, cleaved yes); made in house; host or cells: E. coli
Summary of the method: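 HTRF pairing of His-tagged RAF1 (52-131) plus Tb-cryptate donor with GppNHp-exchanged biotin-RAS (KRAS 1-169 wt/G12D/G12V, NRAS wt) plus streptavidin-d2 acceptor; compound sits 30 min with RAS first, then 1 h RT with RAF1. IC50 derived from 665/615 ratio, untagged RAF1 defining full inhibition.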

[1] = system: GP2D cells (KRAS G12D), phospho-ERK; experiment: pERK In Cell Western (ICW) assay, GP2D cells; assay type: cell-based; details: Table 4, 3 hours
Procedure: pERK ICW is a high throughput screening assay to evaluate the cellular potency of mutant KRAS small molecule inhibitors. KRAS mutant cell lines AGS and GP2D (KRAS^G12D) were purchased from ATCC and maintained respectively in RPMI and DMEM medium supplemented with 10% fetal bovine serum and Penicillin/Streptomycin.
Cells grown in exponential phase were trypsinized, resuspended in fresh media, and viable cells were counted using a cell counter with Trypan Blue (BioRad TC20). Cells were seeded into 384-well plate (Greiner 781091) at density of 5,000 cells/well for AGS and 10,000 cells/well for GP2D and allowed to grow overnight in a 37° C. CO2 incubator. The next day, compounds were dispensed into wells with a ½ log, 10-point serial dilution and top concentration of […] using Tecan D300e dispenser and incubated for 3 hours in a 37° C. CO2 incubator. Cells were then fixed with paraformaldehyde (Electron Microscopy Sciences, 15710, 4% final concentration) for 30 min, permeabilized with wash buffer (1×PBS+0.1% Triton X-100) for 30 min and blocked with Odyssey blocking buffer (Li—COR 927-70001) for 1 hour, all at room temperature (RT). Phospho-ERK antibody (CST 4370L) was diluted 1:500 in Odyssey blocking+0.2% Tween 20 and incubated with cells overnight at 4° C. The next day, plates were washed 5× with wash buffer, incubated with IRDye 800 CW, Goat anti-Rabbit secondary antibody (Li—COR 926-32211, 1:500) and DRAQ5 (CST 4084L, 1:5,000) diluted in Odyssey blocking+0.2% Tween 20 for 1 hour, washed 5×, and imaged on an Odyssey CLx imaging system.
For data analysis, signal intensities from 800 (phosphor-ERK) and 700 (DRAQ5) channels were extracted, and phospho-ERK signals were normalized to DRAQ5 signals for each well and percent of DMSO control values were computed. Data were then imported into Graphpad Prism to compute half-maximal inhibitory concentrations (IC50) using a 4-parameter variable slope model. Z-factor for each plate was computed from signals derived from wells treated with either DMSO or […] of Trametinib. AGS pERK ICW (Method B) IC50 (uM) values of selected compounds are depicted in Table 2 with compounds having a value 0.001 uM to 0.01 uM as ++++; >0.01 uM to 0.1 uM as +++; >0.1 uM to 1 uM as ++; 1 uM to 10 uM as + and >10 uM as NA.

T1 sequence (P01116 with tags, fused parts or gaps isoform P01116-2 G12D): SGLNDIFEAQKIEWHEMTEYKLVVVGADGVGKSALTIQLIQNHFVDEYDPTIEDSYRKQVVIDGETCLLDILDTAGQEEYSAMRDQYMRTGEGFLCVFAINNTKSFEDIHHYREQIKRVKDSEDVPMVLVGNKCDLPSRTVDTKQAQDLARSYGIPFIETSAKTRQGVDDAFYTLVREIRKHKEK

| Compound | IC50 (KRAS G12D/RAF1) | IC50 [1] |
| --- | --- | --- |
| N#Cc1c(N2CCCC(C#N)CC2)nc(OC[C@@]23CCCN2C[C@H](F)C3)nc1N1CC2(CCc3sc(N)c(C#N)c32)C1 (stereo partly drawn) [Compound 33, 2-amino-1′-[5-cyano-6-(4-cyanoazepan-1-yl)-2-[[(2R,8S)-2-fluoro-1,2,3,5,6,7-hexahydropyrrolizin-8-yl]methoxy]pyrimidin-4-yl]spiro[5,6-dihydrocyclopenta[b]thiophene-4,3′-azetidine]-3-carbonitrile] | 1000 to 10000 nM | 100 to 1000 nM |
| N#Cc1c(N2C[C@H]3CC[C@@H](C2)N3)nc(OCC2(CN3CCC(F)(F)CC3)CC2)nc1N1CC2(CCc3sc(N)c(C#N)c32)C1 [Compound 34, 2-amino-1′-[5-cyano-6-(3,8-diazabicyclo[3.2.1]octan-3-yl)-2-[[1-[(4,4-difluoro-1-piperidyl)methyl]cyclopropyl]methoxy]pyrimidin-4-yl]spiro[5,6-dihydrocyclopenta[b]thiophene-4,3′-azetidine]-3-carbonitrile] | 100 to 1000 nM | 1 to 10 nM |
| N#Cc1c(N2CCCC(O)CC2)nc(OC[C@@]23CCCN2C[C@H](F)C3)nc1N1CC2(CCc3sc(N)c(C#N)c32)C1 (stereo partly drawn) [Compound 40, 2-amino-1′-[5-cyano-6-(4-hydroxyazepan-1-yl)-2-[[(2R,8S)-2-fluoro-1,2,3,5,6,7-hexahydropyrrolizin-8-yl]methoxy]pyrimidin-4-yl]spiro[5,6-dihydrocyclopenta[b]thiophene-4,3′-azetidine]-3-carbonitrile] | 1000 to 10000 nM | 100 to 1000 nM |
| N#Cc1c(N2C[C@H]3CC[C@@H](C2)N3)nc(OCC2(CN3CCOCC3)CC2)nc1N1CC2(CCCc3sc(N)c(C#N)c32)C1 [Compound 41, 2-amino-1′-[5-cyano-2-[[1-(morpholinomethyl)cyclopropyl]methoxy]-6-[(1R,5S)-3,8-diazabicyclo[3.2.1]octan-3-yl]pyrimidin-4-yl]spiro[6,7-dihydro-5H-benzothiophene-4,3′-azetidine]-3-carbonitrile] | 100 to 1000 nM | 1 to 10 nM |
| N#Cc1c(N2C[C@H]3COC[C@@H](C2)N3)nc(OCC2(CN3CCOCC3)CC2)nc1N1CC2(CCc3sc(N)c(C#N)c32)C1 [Compound 42, 2-amino-1′-[5-cyano-2-[[1-(morpholinomethyl)cyclopropyl]methoxy]-6-(3-oxa-7,9-diazabicyclo[3.3.1]nonan-7-yl)pyrimidin-4-yl]spiro[5,6-dihydrocyclopenta[b]thiophene-4,3′-azetidine]-3-carbonitrile] | 1000 to 10000 nM | 100 to 1000 nM |
| N#Cc1c(N2CC3COCC(C2)N3)nc(OC[C@]23CCCN2C[C@@H](F)C3)nc1N1CC2(CCc3sc(N)c(C#N)c32)C1 [Compound 43, 2-amino-1′-[5-cyano-2-[[(2S,8R)-2-fluoro-1,2,3,5,6,7-hexahydropyrrolizin-8-yl]methoxy]-6-(3-oxa-7,9-diazabicyclo[3.3.1]nonan-7-yl)pyrimidin-4-yl]spiro[5,6-dihydrocyclopenta[b]thiophene-4,3′-azetidine]-3-carbonitrile] | 1000 to 10000 nM | 100 to 1000 nM |
| CC1CC2(CN(c3nc(OCC4(CN5CCOCC5)CC4)nc(N4C[C@H]5CC[C@@H](C4)N5)c3C#N)C2)c2c1sc(N)c2C#N (stereo partly drawn) [Compound 45, 2-amino-1-[5-cyano-2-[[1-(morpholinomethyl)cyclopropyl]methoxy]-6-[(1R,5S)-3,8-diazabicyclo[3.2.1]octan-3-yl]pyrimidin-4-yl]-6-methyl-spiro[5,6-dihydrocyclopenta[b]thiophene-4,3′-azetidine]-3-carbonitrile] | 100 to 1000 nM | 1 to 10 nM |
| Cc1nc(-c2nn3c(c2Cl)CN(c2nc(OC[C@@]45CCCN4C[C@H](F)C5)nc(N4CC5(CCc6sc(N)c(C#N)c65)C4)c2C#N)CCC3)no1 [Compound 46, 2-amino-1′-[6-[3-chloro-2-(5-methyl-1,2,4-oxadiazol-3-yl)-4,6,7,8-tetrahydropyrazolo[1,5-a][1,4]diazepin-5-yl]-5-cyano-2-[[(2R,8S)-2-fluoro-1,2,3,5,6,7-hexahydropyrrolizin-8-yl]methoxy]pyrimidin-4-yl]spiro[5,6-dihydrocyclopenta[b]thiophene-4,3′-azetidine]-3-carbonitrile] | 1000 to 10000 nM | 10 to 100 nM |
| CN(C)C1(COc2nc(N3C[C@H]4CC[C@@H](C3)N4)c(C#N)c(N3CC4(CCc5sc(N)c(C#N)c54)C3)n2)CC1 [Compound 47, 2-amino-1′-[5-cyano-6-[(1R,5S)-3,8-diazabicyclo[3.2.1]octan-3-yl]-2-[[1-(dimethylamino)cyclopropyl]methoxy]pyrimidin-4-yl]spiro[5,6-dihydrocyclopenta[b]thiophene-4,3′-azetidine]-3-carbonitrile] | 10000 to 100000 nM | 10 to 100 nM |
| CN(CCOc1nc(N2C[C@H]3CC[C@@H](C2)N3)c(C#N)c(N2CC3(CCc4sc(N)c(C#N)c43)C2)n1)C1CCC1 [Compound 48, 2-amino-1′-[5-cyano-2-[2-[cyclobutyl(methyl)amino]ethoxy]-6-[(1R,5S)-3,8-diazabicyclo[3.2.1]octan-3-yl]pyrimidin-4-yl]spiro[5,6-dihydrocyclopenta[b]thiophene-4,3′-azetidine]-3-carbonitrile] | 10000 to 100000 nM | 100 to 1000 nM |
| N#Cc1c(N2CCCC(=O)CC2)nc(OC[C@@]23CCCN2C[C@H](F)C3)nc1N1CC2(CCc3sc(N)c(C#N)c32)C1 [Compound 49, 2-amino-1′-[5-cyano-2-[[(2R,8S)-2-fluoro-1,2,3,5,6,7-hexahydropyrrolizin-8-yl]methoxy]-6-(4-oxoazepan-1-yl)pyrimidin-4-yl]spiro[5,6-dihydrocyclopenta[b]thiophene-4,3′-azetidine]-3-carbonitrile] | 10000 to 100000 nM | 100 to 1000 nM |
| CN(C)CC1(COc2nc(N3C[C@H]4CC[C@@H](C3)N4)c(C#N)c(N3CC4(CCc5sc(N)c(C#N)c54)C3)n2)COC1 [Compound 52, 2-amino-1′-[5-cyano-6-[(1R,5S)-3,8-diazabicyclo[3.2.1]octan-3-yl]-2-[[3-[(dimethylamino)methyl]oxetan-3-yl]methoxy]pyrimidin-4-yl]spiro[5,6-dihydrocyclopenta[b]thiophene-4,3′-azetidine]-3-carbonitrile] | 100 to 1000 nM | 1 to 10 nM |
| N#Cc1c(N2CCCn3nc(C(=O)C4CC4)c(Cl)c3C2)nc(OC[C@@]23CCCN2C[C@H](F)C3)nc1N1CC2(CCc3sc(N)c(C#N)c32)C1 [Compound 62, 2-amino-1′-[6-[3-chloro-2-(cyclopropanecarbonyl)-4,6,7,8-tetrahydropyrazolo[1,5-a][1,4]diazepin-5-yl]-5-cyano-2-[[(2R,8S)-2-fluoro-1,2,3,5,6,7-hexahydropyrrolizin-8-yl]methoxy]pyrimidin-4-yl]spiro[5,6-dihydrocyclopenta[b]thiophene-4,3′-azetidine]-3-carbonitrile] | 10000 to 100000 nM | 10 to 100 nM |
| N#Cc1c(N2C[C@H]3CC[C@@H](C2)N3)nc(OCC2(CN3CCOCC3)CC2)nc1N1CC2(CCCCc3sc(N)c(C#N)c32)C1 [Compound 70, 2-amino-1′-[5-cyano-2-[[1-(morpholinomethyl)cyclopropyl]methoxy]-6-[(1R,5S)-3,8-diazabicyclo[3.2.1]octan-3-yl]pyrimidin-4-yl]spiro[5,6,7,8-tetrahydrocyclohepta[b]thiophene-4,3′-azetidine]-3-carbonitrile] | 100 to 1000 nM | 10 to 100 nM |
